Measured values published in ChEMBL document CHEMBL1144461, “Targeted drug-carrying bacteriophages as antibacterial nanomedicines” (Antimicrob Agents Chemother, 2007).
Calls of active or inactive are those of the source.

Experiments:
Format in all cases: functional, organism-based
Escherichia coli = assay: Antibacterial activity against Escherichia coli O78
Streptococcus pyogenes = assay: Antibacterial activity against Streptococcus pyogenes
Staphylococcus aureus = assay: Antibacterial activity against Staphylococcus aureus COL

Measured: Activity

O=C(N[C@H](CO)[C@H](O)c1ccc([N+](=O)[O-])cc1)C(Cl)Cl
active: Escherichia coli | Streptococcus pyogenes | Staphylococcus aureus
